Blank lines part the entries; values can stand above or below the compound they belong to.
Tested on: LNCaP tumor-transplanted mouse
Test: Internal radioactivity distribution using LNCaP tumor-transplanted mouse
Format: in vivo
Description: (§1) The animal test was performed in compliance with the guidelines of Kyoto University Animal Experiment Committee. Male CB17/IcrJcl-Prkdc^scid mice were purchased from CLEA Japan, Inc. The animals were kept under 12 h/12 h, day/night cycle conditions and fed ad libitum with food and water. LNCaP cells (1.0×10^7 cells/mouse) or PC-3 cells (1.0×10^7 cells/mouse) were suspended in a mixture of PBS and Matrigel manufactured by Corning Life Sciences (1:1, 150 μL) and the suspension was subcutaneously transplanted to the right shoulder of mice under isoflurane anesthesia. Thereafter, the mice were kept for 40 to 60 days.
LNCaP or PC-3 tumor-implanted mice were administered saline solutions (185 kBq, 100 μL) of [^111In]In-PSMA-DA1 or [^111In]In-PSMA-DB from the tail vein (n=3 each). Mice were euthanized 1, 4, 24, 48, 96, and 192 hours after administration. Thereafter, blood and each organ were recovered, and the mass and radioactivity of the organs were measured.
The percentage (% ID) of the radioactivity amount to the administered radioactivity amount (injected dose) is shown as the value (% ID/g) divided by the blood mass or the organ mass (g).
LNCaP tumor-implanted mice prepared by the same method as in Example 1-1 were administered a saline solution (241 kBq/100 μL) of [^111In]In-PtDA from the tail vein (n=3). Mice were euthanized 1, 24, and 48 hours after administration. Thereafter, blood and each organ were recovered, and the mass and radioactivity of the organs were measured.
LNCaP tumor-implanted mice prepared by the same method as in Example 1-1 were administered a saline solution (259 kBq/100 μL each) of each of the radiolabeled compounds in Examples 3-1 to 3-3 or Comparative Examples 2-1 to 2-2 from the tail vein (n=2 to 3). Mice were euthanized 1, 4, 24, 48, 96, and 192 hours after administration. Thereafter, blood and each organ were recovered, and the mass and radioactivity of the organs were measured.
as §1, with “LNCaP cells (4.3×10^6 cells/mouse) or” for “LNCaP cells (1.0×10^7 cells/mouse) or”, “PC-3 cells (3.3×10^6 cells/mouse) were” for “PC-3 cells (1.0×10^7 cells/mouse) were”, “shoulder of CB17/IcrJcl-Prkdc^scid mice under” for “shoulder of mice under”
Mice were euthanized 1, 4, 24, 48, 96, and 192 hours after administration. Thereafter, blood and each organ were recovered, and the mass and radioactivity of the organs were measured.
The results are shown in Table 12 (Mean value±standard deviation, n=3).

Blood (1 h after administration): 14.4 ± 1.81 % ID/g | Brain (1 h after administration): 0.20 ± 0.03 % ID/g | Heart (1 h after administration): 3.98 ± 0.51 % ID/g | Intestine (1 h after administration): 1.55 ± 0.21 % ID/g | Kidney (1 h after administration): 121 ± 14.9 % ID/g | LNCaP Tumor (1 h after administration): 12.5 ± 0.26 % ID/g | Liver (1 h after administration): 2.75 ± 0.54 % ID/g | Lung (1 h after administration): 10.1 ± 1.34 % ID/g | Muscle (1 h after administration): 1.44 ± 0.24 % ID/g | Pancreas (1 h after administration): 1.73 ± 0.18 % ID/g | Spleen (1 h after administration): 18.5 ± 4.39 % ID/g | Stomach (% ID) (1 h after administration): 0.51 ± 0.22 % ID | Blood (4 h after administration): 6.73 ± 1.63 % ID/g | Brain (4 h after administration): 0.14 ± 0.02 % ID/g | Heart (4 h after administration): 1.89 ± 0.49 % ID/g | Intestine (4 h after administration): 1.65 ± 0.37 % ID/g | Kidney (4 h after administration): 177 ± 35.7 % ID/g | LNCaP Tumor (4 h after administration): 13.7 ± 3.24 % ID/g | Liver (4 h after administration): 1.67 ± 0.47 % ID/g | Lung (4 h after administration): 5.02 ± 0.89 % ID/g | Muscle (4 h after administration): 0.63 ± 0.19 % ID/g | Pancreas (4 h after administration): 1.59 ± 0.94 % ID/g | Spleen (4 h after administration): 13.2 ± 2.66 % ID/g | Stomach (% ID) (4 h after administration): 0.23 ± 0.02 % ID | Blood (24 h after administration): 0.84 ± 0.27 % ID/g | Brain (24 h after administration): 0.03 ± 0.01 % ID/g | Heart (24 h after administration): 0.33 ± 0.05 % ID/g | Intestine (24 h after administration): 0.82 ± 0.68 % ID/g | Kidney (24 h after administration): 55.3 ± 19.3 % ID/g | LNCaP Tumor (24 h after administration): 8.64 ± 2.27 % ID/g | Liver (24 h after administration): 0.33 ± 0.02 % ID/g | Lung (24 h after administration): 0.74 ± 0.12 % ID/g | Muscle (24 h after administration): 0.07 ± 0.02 % ID/g | Pancreas (24 h after administration): 0.19 ± 0.05 % ID/g | Spleen (24 h after administration): 1.97 ± 0.90 % ID/g | Stomach (% ID) (24 h after administration): 0.21 ± 0.15 % ID | Blood (48 h after administration): 0.26 ± 0.23 % ID/g | Brain (48 h after administration): 0.02 ± 0.01 % ID/g | Heart (48 h after administration): 0.18 ± 0.12 % ID/g | Intestine (48 h after administration): 0.68 ± 0.32 % ID/g | Kidney (48 h after administration): 22.4 ± 14.5 % ID/g | LNCaP Tumor (48 h after administration): 8.10 ± 2.67 % ID/g | Liver (48 h after administration): 0.32 ± 0.10 % ID/g | Lung (48 h after administration): 0.45 ± 0.18 % ID/g | Muscle (48 h after administration): 0.04 ± 0.05 % ID/g | Pancreas (48 h after administration): 0.13 ± 0.06 % ID/g | Spleen (48 h after administration): 1.13 ± 0.70 % ID/g | Stomach (% ID) (48 h after administration): 0.16 ± 0.14 % ID | Blood (96 h after administration): 0.01 ± 0.01 % ID/g | Brain (96 h after administration): 0.01 ± 0.00 % ID/g | Heart (96 h after administration): 0.07 ± 0.02 % ID/g | Intestine (96 h after administration): 0.45 ± 0.29 % ID/g | Kidney (96 h after administration): 3.27 ± 0.26 % ID/g | LNCaP Tumor (96 h after administration): 4.48 ± 0.78 % ID/g | Liver (96 h after administration): 0.22 ± 0.01 % ID/g | Lung (96 h after administration): 0.14 ± 0.08 % ID/g | Muscle (96 h after administration): 0.05 ± 0.02 % ID/g | Pancreas (96 h after administration): 0.06 ± 0.02 % ID/g | Spleen (96 h after administration): 0.61 ± 0.04 % ID/g | Stomach (% ID) (96 h after administration): 0.04 ± 0.02 % ID | Blood (192 h after administration): 0.01 ± 0.01 % ID/g | Brain (192 h after administration): 0.01 ± 0.01 % ID/g | Heart (192 h after administration): 0.06 ± 0.02 % ID/g | Intestine (192 h after administration): 0.27 ± 0.18 % ID/g | Kidney (192 h after administration): 1.76 ± 0.70 % ID/g | LNCaP Tumor (192 h after administration): 1.76 ± 0.45 % ID/g | Liver (192 h after administration): 0.20 ± 0.05 % ID/g | Lung (192 h after administration): 0.07 ± 0.02 % ID/g | Muscle (192 h after administration): 0.01 ± 0.01 % ID/g | Pancreas (192 h after administration): 0.08 ± 0.02 % ID/g | Spleen (192 h after administration): 0.44 ± 0.12 % ID/g | Stomach (% ID) (192 h after administration): 0.01 ± 0.01 % ID
SMILES: O=C([O-])CN(Cc1cccc(C(=O)[O-])n1)C[C@H](Cc1ccc(NC(=O)[C@H](CCCCNC(=O)CCC(=O)NCCCC[C@H](NC(=O)N[C@@H](CCC(=O)O)C(=O)O)C(=O)O)NC(=O)CCCc2ccc(I)cc2)cc1)N(CC(=O)[O-])Cc1cccc(C(=O)[O-])n1.[111In+3] [[^111In]In-Octapa-2]

Blood (1 h after administration): 3.33 ± 0.21 % ID/g | Brain (1 h after administration): 0.06 ± 0.01 % ID/g | Heart (1 h after administration): 0.87 ± 0.33 % ID/g | Intestine (1 h after administration): 0.59 ± 0.14 % ID/g | Kidney (1 h after administration): 59.2 ± 35.2 % ID/g | LNCaP Tumor (1 h after administration): 3.36 ± 0.04 % ID/g | Liver (1 h after administration): 0.91 ± 0.20 % ID/g | Lung (1 h after administration): 2.24 ± 0.60 % ID/g | Muscle (1 h after administration): 0.23 ± 0.68 % ID/g | Pancreas (1 h after administration): 0.74 ± 0.25 % ID/g | Spleen (1 h after administration): 3.05 ± 0.53 % ID/g | Stomach (% ID) (1 h after administration): 0.10 ± 0.04 % ID | Blood (4 h after administration): 2.00 ± 0.29 % ID/g | Brain (4 h after administration): 0.05 ± 0.00 % ID/g | Heart (4 h after administration): 0.60 ± 0.08 % ID/g | Intestine (4 h after administration): 1.05 ± 0.10 % ID/g | Kidney (4 h after administration): 22.7 ± 9.69 % ID/g | LNCaP Tumor (4 h after administration): 2.50 ± 0.50 % ID/g | Liver (4 h after administration): 0.95 ± 0.05 % ID/g | Lung (4 h after administration): 1.56 ± 0.07 % ID/g | Muscle (4 h after administration): 0.21 ± 0.04 % ID/g | Pancreas (4 h after administration): 0.54 ± 0.22 % ID/g | Spleen (4 h after administration): 2.39 ± 0.05 % ID/g | Stomach (% ID) (4 h after administration): 0.13 ± 0.03 % ID | Blood (24 h after administration): 0.68 ± 0.17 % ID/g | Brain (24 h after administration): 0.07 ± 0.02 % ID/g | Heart (24 h after administration): 0.43 ± 0.07 % ID/g | Intestine (24 h after administration): 1.00 ± 0.44 % ID/g | Kidney (24 h after administration): 13.2 ± 2.41 % ID/g | LNCaP Tumor (24 h after administration): 2.09 ± 0.39 % ID/g | Liver (24 h after administration): 1.55 ± 0.32 % ID/g | Lung (24 h after administration): 0.97 ± 0.15 % ID/g | Muscle (24 h after administration): 0.21 ± 0.07 % ID/g | Pancreas (24 h after administration): 0.71 ± 0.10 % ID/g | Spleen (24 h after administration): 3.37 ± 0.75 % ID/g | Stomach (% ID) (24 h after administration): 0.16 ± 0.05 % ID | Blood (48 h after administration): 0.27 ± 0.16 % ID/g | Brain (48 h after administration): 0.03 ± 0.02 % ID/g | Heart (48 h after administration): 0.32 ± 0.05 % ID/g | Intestine (48 h after administration): 0.79 ± 0.21 % ID/g | Kidney (48 h after administration): 8.58 ± 2.02 % ID/g | LNCaP Tumor (48 h after administration): 1.69 ± 0.77 % ID/g | Liver (48 h after administration): 1.28 ± 0.16 % ID/g | Lung (48 h after administration): 0.66 ± 0.24 % ID/g | Muscle (48 h after administration): 0.15 ± 0.06 % ID/g | Pancreas (48 h after administration): 0.71 ± 0.17 % ID/g | Spleen (48 h after administration): 2.63 ± 0.83 % ID/g | Stomach (% ID) (48 h after administration): 0.07 ± 0.02 % ID | Blood (96 h after administration): 0.14 ± 0.04 % ID/g | Brain (96 h after administration): 0.09 ± 0.05 % ID/g | Heart (96 h after administration): 0.40 ± 0.12 % ID/g | Intestine (96 h after administration): 0.41 ± 0.17 % ID/g | Kidney (96 h after administration): 7.04 ± 3.28 % ID/g | LNCaP Tumor (96 h after administration): 1.05 ± 0.03 % ID/g | Liver (96 h after administration): 1.59 ± 0.57 % ID/g | Lung (96 h after administration): 0.70 ± 0.15 % ID/g | Muscle (96 h after administration): 0.14 ± 0.08 % ID/g | Pancreas (96 h after administration): 0.85 ± 0.39 % ID/g | Spleen (96 h after administration): 2.82 ± 0.87 % ID/g | Stomach (% ID) (96 h after administration): 0.10 ± 0.03 % ID | Blood (192 h after administration): 0.07 ± 0.03 % ID/g | Brain (192 h after administration): 0.04 ± 0.00 % ID/g | Heart (192 h after administration): 0.33 ± 0.01 % ID/g | Intestine (192 h after administration): 0.13 ± 0.02 % ID/g | Kidney (192 h after administration): 3.47 ± 1.24 % ID/g | LNCaP Tumor (192 h after administration): 0.83 ± 0.11 % ID/g | Liver (192 h after administration): 1.20 ± 0.09 % ID/g | Lung (192 h after administration): 0.67 ± 0.05 % ID/g | Muscle (192 h after administration): 0.14 ± 0.09 % ID/g | Pancreas (192 h after administration): 1.04 ± 0.18 % ID/g | Spleen (192 h after administration): 3.46 ± 0.32 % ID/g | Stomach (% ID) (192 h after administration): 0.05 ± 0.00 % ID | retention in blood / accumulation at the LNCaP tumor against the comparator (in words) (any time point): less accumulated | tumor/kidney ratio compared with [^111In]In-PSMA-DA1 (in words) (mouse, in vivo): lower
SMILES: O=C([O-])CN1CCN(C(CCC(=O)NCCCC[C@H](NC(=O)N[C@@H](CCC(=O)O)C(=O)O)C(=O)O)C(=O)[O-])CCN(CC(=O)[O-])CCN(C(CCC(=O)Nc2ccccc2)C(=O)[O-])CC1.[111In+3] (some centres unmarked) [[^111In]In-PSMA-DB, reference compound]
